Test results published in patent publication US20240228493A1, “LRRK2 INHIBITORS AND USES THEREOF” (NEURON23, ICN., priority 2022, published 2024).

Legend:
[1] = molecular target: T1, wt human LRRK2, catalytic site (Homo sapiens, UniProt Q5S007); experiment: TR-FRET LanthaScreen Tb Kinase Activity Assay, LRRK2 inhibition; type: biochemical; conditions: 2 nM wt human LRRK2, 400 nM peptide, 38 μM ATP
T1 construct: wt human LRRK2, catalytic site, catalytic site (ThermoFisher/USA); purchased ThermoFisher
Procedure, shortened: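 Fluorescein-ERM (LRRKtide) peptide (400 nM) phosphorylated by 2 nM wt human LRRK2 catalytic site with 38 μM ATP in 1× Kinase Buffer A, 120 min at room temperature after 15 min compound–kinase preincubation. EDTA plus Tb-anti-pLRRKtide antibody added, read after 60 min; inhibition from TR-FRET emission ratios.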

[2] = Brain penetration (Kp,uu) in CD-1 mice after single IV bolus, with plasma and brain binding by equilibrium dialysis; type: in vivo; conditions: mouse, brain and plasma (unbound brain/unbound plasma), male CD-1 mice, single IV bolus 1 mg/kg
Protocol: The compounds disclosed herein were tested on CD-1 mice for brain penetration (Kp, uu) according to the following procedures.
Nine male CD-1 mice were administered TEST COMPOUND by single intravenous bolus administration at 1 mg/kg. The vehicle used for IV study was 5% DMSO, 5% solutol, 20% PEG300 and 70% water. The detailed dosing and sampling regimens are described in the following tables.
The body weights were in the range from 28.81 to 31.25 g for males on the first dosing day. All animals received a single intravenous bolus administration of TEST COMPOUND from the tail vein.
Each blood collection (about 0.06 mL per time point) was performed from saphenous vein of each animal into pre-chilled commercial K2-EDTA tubes as anti-coagulant and placed on wet ice until centrifugation.
Brain tissue was homogenized using homogenizing buffer (15 mM PBS (pH7.4): MeOH=2:1) at the ratio of 1:9 (1 g tissue with 9 mL buffer, the dilution ratio is 10). The tissue homogenate was kept at −60° C. or lower until LC-MS/MS analysis.
The concentrations of TEST COMPOUND in plasma and brain were determined by using an LC-MS/MS method.
The plasma and brain concentration of TEST COMPOUND in study animals was subjected to a non-compartmental pharmacokinetic analysis by using the Phoenix WinNonlin software program (version 6.3 or above, Pharsight). The linear/log trapezoidal rule was applied in obtaining the PK parameters.
Mouse Kp, uu=(% free in mouse brain*concentration in mouse brain)/(% free in mouse plasma*concentration in mouse plasma)
The dialysis apparatus was assembled according to the manufacturer's instruction. Each Cell was filled with 120 μL of spiked plasma sample and dialyzed against equal volume of dialysis buffer (PBS). The assay was performed in duplicate. The dialysis plates were sealed and incubated in an incubator at 37° C. with 5% CO2 and rotated at 100 rpm for 6 hours. At the end of incubation, the seals were removed and 50 μL of samples from both buffer and plasma chambers were transferred to a 96-well plate.
The dialysis apparatus was assembled according to the manufacturer's instruction. Each Cell was filled with 150 μL of brain homogenate sample and dialyzed against equal volume of dialysis buffer (PBS). The assay was performed in duplicate. The dialysis plates were sealed and incubated in an incubator at 37° C. with 5% CO2 and rotated at 100 rpm for 6 hours. At the end of incubation, the seals were removed and 50 μL of samples from both buffer and brain homogenate chambers were transferred into separate tubes on a plate.

Caco-2 cells = experiment: Caco-2 bidirectional permeability; type: in vitro ADME; conditions: for Caco-2 ER: Efflux Ratio=Papp(BA)/Papp(AB); for Caco-2 A2B (10^−6 cm/s): apical to basolateral; for Caco-2 A2B (10^−6 cm/s) / Caco-2 B2A (10^−6 cm/s): 2 hours, pH 7.4; for Caco-2 B2A (10^−6 cm/s): basolateral to apical
Procedure, shortened: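 Caco-2 monolayers were grown 21–28 days on PET inserts and run in duplicate in HBSS with 10 mM HEPES, pH 7.4. Test compound was dosed bidirectionally at […] for 2 h at 37 °C; quantification was by LC-MS/MS. Papp and efflux ratio (B-A/A-B) were calculated, with lucifer yellow monolayer integrity checks.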

T1 sequence (Q5S007 1879-2138 limits assumed): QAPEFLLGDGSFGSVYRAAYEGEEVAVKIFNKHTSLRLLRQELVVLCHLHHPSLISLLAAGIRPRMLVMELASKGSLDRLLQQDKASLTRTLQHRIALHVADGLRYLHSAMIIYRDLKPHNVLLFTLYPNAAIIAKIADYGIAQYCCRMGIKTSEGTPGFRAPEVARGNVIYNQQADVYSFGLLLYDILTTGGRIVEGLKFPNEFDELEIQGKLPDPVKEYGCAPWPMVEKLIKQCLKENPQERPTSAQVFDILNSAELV

SMILES | IC50 [1] [nM] | Kp uu [2] | Caco-2 ER (Caco-2 cells) | Caco-2 B2A (10^−6 cm/s) (Caco-2 cells) | Caco-2 A2B (10^−6 cm/s) (Caco-2 cells)
Cc1n[nH]c2c1N=C(c1c(F)cccc1F)Nc1cnc(-c3cnn(CC(F)F)c3)cc1-2 [Example 28, 13-[1-(2,2-difluoroethyl)pyrazol-4-y1]-8-(2,6-difluorophenyl)-5-methyl-3,4,7,9,12-pentazatricyclo[8.4.0.02,6]tetradeca-1(10),2(6),4,7,11,13-hexaene] | < 1 | ≥ 0.1 | L (L (Likely)”: ER≥2.5) | H (H (High permeability)”: A2B (B2A)>5) | M (M (Moderate permeability)”: 1≤A2B (B2A)≤5)
Fc1cccc(F)c1C1=Nc2cn[nH]c2-c2cc(N3CCOCC3)ncc2N1 [Example 33, 4-[8-(2,6-difluorophenyl)-3,4,7,9,12-pentazatricyclo[8.4.0.02,6]tetradeca-1(10),2(6),4,7,11,13-hexaen-13-yl]morpholine] | < 1 | < 0.1 | L (L (Likely)”: ER≥2.5) | H (H (High permeability)”: A2B (B2A)>5) | M (M (Moderate permeability)”: 1≤A2B (B2A)≤5)
Cc1n[nH]c2c1N=C(c1c(F)cccc1F)Nc1c-2cc(N2CCO[C@@H](CO)C2)nc1C [Example 37, (R)-(4-(5-(2,6-difluorophenyl)-3,7-dimethyl-1,6-dihydropyrazolo[4,3-d]pyrido[4,3-f][1,3]diazepin-9-yl)morpholin-2-y1)methanol] | < 1 | < 0.1 | L (L (Likely)”: ER≥2.5) | H (H (High permeability)”: A2B (B2A)>5) | M (M (Moderate permeability)”: 1≤A2B (B2A)≤5)
Cc1n[nH]c2c1N=C(c1c(F)cccc1F)Nc1c-2cc(N2CCC(C)(O)CC2)nc1C [Example 41, 1-(5-(2,6-difluorophenyl)-3,7-dimethyl-1,6-dihydropyrazolo[4,3-d]pyrido[4,3-f][1,3]diazepin-9-yl)-4-methylpiperidin-4-ol] | 1 to 100 | < 0.1 | L (L (Likely)”: ER≥2.5) | H (H (High permeability)”: A2B (B2A)>5) | M (M (Moderate permeability)”: 1≤A2B (B2A)≤5)
Cn1cc(-c2cc3c(cn2)NC(c2c(F)cccc2F)=Nc2c(Cl)n[nH]c2-3)cn1 [Example 54, 3-chloro-5-(2,6-difluorophenyl)-9-(1-methyl-1H-pyrazol-4-yl)-1,6-dihydropyrazolo[4,3-d]pyrido[4,3-f][1,3]diazepine] | < 1 | < 0.1 | L (L (Likely)”: ER≥2.5) | H (H (High permeability)”: A2B (B2A)>5) | M (M (Moderate permeability)”: 1≤A2B (B2A)≤5)

Second part, led by results:

IC50 [1] [nM] | Kp uu [2] | Caco-2 ER (Caco-2 cells) | Caco-2 B2A (10^−6 cm/s) (Caco-2 cells) | SMILES | Caco-2 A2B (10^−6 cm/s) (Caco-2 cells)
< 1 | < 0.1 | L (L (Likely)”: ER≥2.5) | H (H (High permeability)”: A2B (B2A)>5) | [2H]C1([2H])OC([2H])([2H])C([2H])([2H])N(c2cc3c(cn2)NC(c2c(F)cccc2F)=Nc2cn[nH]c2-3)C1([2H])[2H] [Example 20, 2,2,3,3,5,5,6,6-octadeuterio-4-[8-(2,6-difluorophenyl)-3,4,7,9,12-pentazatricyclo[8.4.0.02,6]tetradeca-1(10),2(6),4,7,11,13-hexaen-13-yl]morpholine] | M (M (Moderate permeability)”: 1≤A2B (B2A)≤5)
< 1 | < 0.1 | L (L (Likely)”: ER≥2.5) | H (H (High permeability)”: A2B (B2A)>5) | Fc1cccc(F)c1C1=Nc2c(Cl)n[nH]c2-c2cc(N3CCOCC3)ncc2N1 [Example 23, 4-(3-chloro-5-(2,6-difluorophenyl)-1,6-dihydropyrazolo[4,3-d]pyrido[4,3-f][1,3]diazepin-9-yl)morpholine] | M (M (Moderate permeability)”: 1≤A2B (B2A)≤5)
< 1 | < 0.1 | L (L (Likely)”: ER≥2.5) | H (H (High permeability)”: A2B (B2A)>5) | C[C@H]1CN(c2cc3c(cn2)NC(c2c(F)cccc2F)=Nc2c(Cl)n[nH]c2-3)C[C@H](C)O1 [Example 26, (2S,6S)-4-(3-chloro-5-(2,6-difluorophenyl)-1,6-dihydropyrazolo[4,3-d]pyrido[4,3-f][1,3]diazepin-9-yl)-2,6-dimethylmorpholine] | H (H (High permeability)”: A2B (B2A)>5)
< 1 | < 0.1 | L (L (Likely)”: ER≥2.5) | H (H (High permeability)”: A2B (B2A)>5) | [2H]C([2H])([2H])c1n[nH]c2c1N=C(c1c(F)cccc1F)Nc1cnc(N3CCO[C@H](C)C3)cc1-2 [Example 27, (2R)-4-[8-(2,6-difluorophenyl)-5-(trideuteriomethyl)-3,4,7,9,12-pentazatricyclo[8.4.0.02,6]tetradeca-1(10),2(6),4,7,11,13-hexaen-13-y1]-2-methyl-morpholine] | H (H (High permeability)”: A2B (B2A)>5)
